ChEMBL document CHEMBL1201862, “PubChem BioAssay data set” (2004)
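Exposure lasted 48 hours, with cells grown in 96-well plates and compounds tested at five concentrations. The concentration for 50% growth inhibition is given as GI50.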 Active and inactive are the calls of the source. Rule as the data show it: active = GI50 up to about 1.1 µM and inactive = higher.

Key:
Assay in all cases: inhibition of tumour cell growth, NCI panel, 48 h
[1] = test system: 786-0
[2] = test system: A498
[3] = test system: A549
[4] = test system: ACHN
[5] = test system: BT-549
[6] = test system: CAKI-1
[7] = test system: CCRF-CEM
[8] = test system: COLO 205
[9] = test system: DU-145
[10] = test system: EKVX
[11] = test system: HCC 2998
[12] = test system: HCT-116
[13] = test system: HCT-15
[14] = test system: HL-60
[15] = test system: HOP-62
[16] = test system: HOP-92
[17] = test system: HT-29
[18] = test system: Hs-578T
[19] = test system: IGROV-1
[20] = test system: K562
[21] = test system: KM12
[22] = test system: LOX IMVI
[23] = test system: M14
[24] = test system: MCF7
[25] = test system: MDA-MB-231
[26] = test system: MDA-MB-435
[27] = test system: MDA-N
[28] = test system: MOLT-4
[29] = test system: Malme-3M
[30] = test system: NCI-H226
[31] = test system: NCI-H23
[32] = test system: NCI-H460
[33] = test system: NCI-H522
[34] = test system: NCI/ADR-RES
[35] = test system: OVCAR-3
[36] = test system: OVCAR-4
[37] = test system: OVCAR-5
[38] = test system: OVCAR-8
[39] = test system: PC-3
[40] = test system: RPMI-8226
[41] = test system: RXF 393
[42] = test system: SF-268
[43] = test system: SF-295
[44] = test system: SF-539
[45] = test system: SK-MEL-28
[46] = test system: SK-MEL-2
[47] = test system: SK-MEL-5
[48] = test system: SK-OV-3
[49] = test system: SN12C
[50] = test system: SNB-19
[51] = test system: SNB-75
[52] = test system: SR
[53] = test system: SW-620
[54] = test system: T47D
[55] = test system: TK-10
[56] = test system: U-251
[57] = test system: UACC-257
[58] = test system: UACC-62
[59] = test system: UO-31

N=C(N)CCNC(=O)C1CCC(N)=N1 (stereo not drawn)
GI50 [1]: 13.1 µM (inactive)
GI50 [2]: 16 µM (inactive)
GI50 [3]: 6.49 µM (inactive)
GI50 [4]: 13.8 µM (inactive)
GI50 [5]: 43.4 µM (inactive)
GI50 [6]: 10.6 µM (inactive)
GI50 [7]: 12.5 µM (inactive)
GI50 [8]: 5.61 µM (inactive)
GI50 [9]: 4.98 µM (inactive)
GI50 [10]: 9.12 µM (inactive)
GI50 [11]: 4.95 µM (inactive)
GI50 [12]: 13.1 µM (inactive)
GI50 [13]: 37.9 µM
GI50 [14]: 37.5 µM (inactive)
GI50 [15]: 4.38 µM (inactive)
GI50 [16]: 11.6 µM (inactive)
GI50 [17]: 5.2 µM (inactive)
GI50 [18]: 8.36 µM (inactive)
GI50 [19]: 8.49 µM (inactive)
GI50 [20]: 13.2 µM (inactive)
GI50 [21]: 6.79 µM (inactive)
GI50 [22]: 15.8 µM (inactive)
GI50 [23]: 24.7 µM (inactive)
GI50 [24]: 16.2 µM (inactive)
GI50 [25]: 14.7 µM (inactive)
GI50 [26]: 31.5 µM (inactive)
GI50 [27]: 21.4 µM (inactive)
GI50 [28]: 12.2 µM (inactive)
GI50 [29]: 7.5 µM (inactive)
GI50 [30]: 18.1 µM (inactive)
GI50 [31]: 16.1 µM (inactive)
GI50 [32]: 7.55 µM (inactive)
GI50 [33]: 23 µM (inactive)
GI50 [34]: 26.2 µM (inactive)
GI50 [35]: 9.82 µM (inactive)
GI50 [36]: 9.48 µM (inactive)
GI50 [37]: 19.1 µM (inactive)
GI50 [38]: 7.28 µM (inactive)
GI50 [39]: 6 µM (inactive)
GI50 [40]: 29.9 µM (inactive)
GI50 [41]: 35.1 µM (inactive)
GI50 [42]: 10.3 µM (inactive)
GI50 [43]: 18.9 µM (inactive)
GI50 [44]: 11.6 µM (inactive)
GI50 [45]: 19.2 µM (inactive)
GI50 [46]: 27.2 µM (inactive)
GI50 [47]: 16.4 µM (inactive)
GI50 [48]: 9.59 µM (inactive)
GI50 [49]: 5.27 µM (inactive)
GI50 [50]: 6.76 µM (inactive)
GI50 [51]: 12.2 µM (inactive)
GI50 [52]: 18.5 µM (inactive)
GI50 [53]: 22.1 µM (inactive)
GI50 [54]: 6.5 µM (inactive)
GI50 [55]: 22.7 µM (inactive)
GI50 [56]: 7.89 µM (inactive)
GI50 [57]: 13.7 µM (inactive)
GI50 [58]: 14 µM (inactive)
GI50 [59]: 18.2 µM (inactive)

c1ccc2sc(C3(N4CCCCC4)CCCCCC3)cc2c1
GI50 [1]: 20.9 µM (inactive)
GI50 [2]: 15.2 µM (inactive)
GI50 [3]: 30 µM (inactive)
GI50 [4]: 17.6 µM (inactive)
GI50 [5]: 24.7 µM (inactive)
GI50 [6]: 26.7 µM (inactive)
GI50 [7]: 13.2 µM (inactive)
GI50 [8]: 16.6 µM (inactive)
GI50 [9]: 31.1 µM (inactive)
GI50 [10]: 22.9 µM (inactive)
GI50 [11]: 13.4 µM (inactive)
GI50 [12]: 15.5 µM (inactive)
GI50 [13]: 17.3 µM
GI50 [14]: 2.1 µM (inactive)
GI50 [15]: 28.8 µM (inactive)
GI50 [16]: 22.1 µM (inactive)
GI50 [17]: 14.8 µM (inactive)
GI50 [18]: 18.9 µM (inactive)
GI50 [19]: 23.4 µM (inactive)
GI50 [20]: 16.4 µM (inactive)
GI50 [21]: 17.1 µM (inactive)
GI50 [22]: 18.5 µM (inactive)
GI50 [23]: 27 µM (inactive)
GI50 [24]: 17.8 µM (inactive)
GI50 [25]: 23 µM (inactive)
GI50 [26]: 22.3 µM (inactive)
GI50 [27]: 34.9 µM (inactive)
GI50 [28]: 15.2 µM (inactive)
GI50 [29]: 24 µM (inactive)
GI50 [30]: 17.3 µM (inactive)
GI50 [31]: 20.5 µM (inactive)
GI50 [32]: 17.1 µM (inactive)
GI50 [33]: 17.5 µM (inactive)
GI50 [34]: 20.5 µM (inactive)
GI50 [35]: 19.4 µM (inactive)
GI50 [36]: 25.8 µM (inactive)
GI50 [37]: 18.8 µM (inactive)
GI50 [38]: 26.1 µM (inactive)
GI50 [39]: 15.5 µM (inactive)
GI50 [40]: 14.2 µM (inactive)
GI50 [41]: 14.5 µM (inactive)
GI50 [42]: 25.4 µM (inactive)
GI50 [43]: 22.4 µM (inactive)
GI50 [44]: 21 µM (inactive)
GI50 [45]: 4.62 µM (inactive)
GI50 [46]: 25.9 µM (inactive)
GI50 [47]: 16.6 µM (inactive)
GI50 [48]: 25.3 µM (inactive)
GI50 [49]: 20.4 µM (inactive)
GI50 [50]: 20.8 µM (inactive)
GI50 [51]: 15.2 µM (inactive)
GI50 [52]: 19.1 µM (inactive)
GI50 [53]: 12 µM (inactive)
GI50 [54]: 14.5 µM (inactive)
GI50 [55]: 25.1 µM (inactive)
GI50 [56]: 17.3 µM (inactive)
GI50 [57]: 18.8 µM (inactive)
GI50 [58]: 25.4 µM (inactive)
GI50 [59]: 25.1 µM (inactive)
